Among the data in ChEMBL document CHEMBL1250451, “Mechanistic insights into a Ca2+-dependent family of alpha-mannosidases in a human gut symbiont” (Nat Chem Biol, 2010) are Activity values, retold here.

Common to all, as to assay type: protein assay
For test [1], the target named is T1, Alpha-1,2-mannosidase (BT_2199) (Bacteroides thetaiotaomicron) (UniProt Q8A5N9).
T1 sequence (whole entry): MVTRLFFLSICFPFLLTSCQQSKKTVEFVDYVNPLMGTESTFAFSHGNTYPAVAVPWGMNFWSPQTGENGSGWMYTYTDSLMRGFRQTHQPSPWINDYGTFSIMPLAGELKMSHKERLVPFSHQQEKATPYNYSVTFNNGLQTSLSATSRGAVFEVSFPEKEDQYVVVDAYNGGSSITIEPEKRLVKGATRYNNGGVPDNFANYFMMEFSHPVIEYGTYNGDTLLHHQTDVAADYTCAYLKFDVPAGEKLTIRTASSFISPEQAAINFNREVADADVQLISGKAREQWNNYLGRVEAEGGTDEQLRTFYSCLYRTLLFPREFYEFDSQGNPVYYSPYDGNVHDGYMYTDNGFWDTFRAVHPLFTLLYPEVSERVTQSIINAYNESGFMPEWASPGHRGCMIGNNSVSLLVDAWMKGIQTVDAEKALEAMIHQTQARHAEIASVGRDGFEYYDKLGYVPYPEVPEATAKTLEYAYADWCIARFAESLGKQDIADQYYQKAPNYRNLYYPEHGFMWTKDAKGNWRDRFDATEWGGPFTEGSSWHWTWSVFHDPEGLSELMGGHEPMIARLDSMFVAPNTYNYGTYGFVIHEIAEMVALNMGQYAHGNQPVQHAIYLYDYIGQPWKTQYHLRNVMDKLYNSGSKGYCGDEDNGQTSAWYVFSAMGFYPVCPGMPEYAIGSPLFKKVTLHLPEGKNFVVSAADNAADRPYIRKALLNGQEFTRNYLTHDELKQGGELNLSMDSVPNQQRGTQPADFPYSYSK
The test is described as follows: Activity of Bacteroides thetaiotaomicron GH92 alpha-mannosidase GH92 alpha-mannosidase 2199 assessed as mannose release at 1 mM after 16 hrs by HPLC relative to untreated control after 16 hrs by HPLC.

Test [2] has as its target T2, Alpha-1,2-mannosidase (BT_3990) (Bacteroides thetaiotaomicron) (UniProt Q8A0N1).
T2 sequence (whole entry): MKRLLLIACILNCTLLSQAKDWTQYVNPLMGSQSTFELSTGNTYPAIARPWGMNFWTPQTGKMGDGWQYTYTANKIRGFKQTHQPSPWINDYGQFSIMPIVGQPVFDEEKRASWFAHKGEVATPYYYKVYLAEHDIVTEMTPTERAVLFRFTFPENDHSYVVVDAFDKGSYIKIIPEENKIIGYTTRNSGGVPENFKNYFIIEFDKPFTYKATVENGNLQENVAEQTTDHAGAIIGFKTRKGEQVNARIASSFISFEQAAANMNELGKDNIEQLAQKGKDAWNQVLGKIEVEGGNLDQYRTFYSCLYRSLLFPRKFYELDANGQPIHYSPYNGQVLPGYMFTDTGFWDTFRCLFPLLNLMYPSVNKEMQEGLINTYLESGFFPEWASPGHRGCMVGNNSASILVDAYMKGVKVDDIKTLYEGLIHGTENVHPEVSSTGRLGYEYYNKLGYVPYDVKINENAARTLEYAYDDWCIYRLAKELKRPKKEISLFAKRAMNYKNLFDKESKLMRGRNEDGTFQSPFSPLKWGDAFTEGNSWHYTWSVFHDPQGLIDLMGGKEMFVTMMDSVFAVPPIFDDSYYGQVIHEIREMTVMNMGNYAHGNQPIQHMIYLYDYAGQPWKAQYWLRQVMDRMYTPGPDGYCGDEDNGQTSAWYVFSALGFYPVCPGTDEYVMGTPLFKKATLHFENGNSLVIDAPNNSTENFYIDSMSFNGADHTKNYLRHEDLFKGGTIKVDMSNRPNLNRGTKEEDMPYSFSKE
The test is described as follows: Activity of Bacteroides thetaiotaomicron GH92 alpha-mannosidase 3990 assessed as recovery of enzyme activity at 1 mM in presence of 7 mM Sc(3+) ions and in presence of 5 mM EDTA in 100 mM pH 7 MOPS buffer relative to enzyme activity in presence of calcium.

In test [3] the target is T2, Alpha-1,2-mannosidase (BT_3990) (Bacteroides thetaiotaomicron). The test is described as follows: Activity of Bacteroides thetaiotaomicron GH92 alpha-mannosidase 3990 assessed as recovery of enzyme activity at 1 mM in presence of 7 mM Zn(2+) ions and in presence of 5 mM EDTA in 100 mM pH 7 MOPS buffer relative to enzyme activity in presence of calcium.
The target in test [4] is T1, Alpha-1,2-mannosidase (BT_2199) (Bacteroides thetaiotaomicron). Briefly: Activity of Bacteroides thetaiotaomicron GH92 alpha-mannosidase 2199 assessed as recovery of enzyme activity at 1 mM in presence of 7 mM Co(2+) ions and in presence of 5 mM EGTA in 100 mM pH 7 MOPS buffer relative to enzyme activity in presence of calcium.
Test [5] deals with T2, Alpha-1,2-mannosidase (BT_3990) (Bacteroides thetaiotaomicron). The test is described as follows: Activity of Bacteroides thetaiotaomicron GH92 alpha-mannosidase 3990 assessed as recovery of enzyme activity at 1 mM in absence of metal and in presence of 5 mM EGTA in 100 mM pH 7 MOPS buffer relative to enzyme activity in presence of calcium.
In test [6] the target is T1, Alpha-1,2-mannosidase (BT_2199) (Bacteroides thetaiotaomicron). Briefly: Activity of Bacteroides thetaiotaomicron GH92 alpha-mannosidase 2199 assessed as recovery of enzyme activity at 1 mM in presence of 7 mM Ti(3+) ions and in presence of 5 mM EDTA in 100 mM pH 7 MOPS buffer relative to enzyme activity in presence of calcium.
Test [7] addresses T2, Alpha-1,2-mannosidase (BT_3990) (Bacteroides thetaiotaomicron). Briefly: Activity of Bacteroides thetaiotaomicron GH92 alpha-mannosidase 3990 assessed as recovery of enzyme activity at 1 mM in presence of 7 mM Ba(2+) ions and in presence of 5 mM EDTA in 100 mM pH 7 MOPS buffer relative to enzyme activity in presence of calcium.
Test [8] addresses T1, Alpha-1,2-mannosidase (BT_2199) (Bacteroides thetaiotaomicron). Briefly: Activity of Bacteroides thetaiotaomicron GH92 alpha-mannosidase 2199 assessed as recovery of enzyme activity at 1 mM in presence of 7 mM Be(2+) ions and in presence of 5 mM EDTA in 100 mM pH 7 MOPS buffer relative to enzyme activity in presence of calcium.
Test [9] shares this target. The test is described as follows: Activity of Bacteroides thetaiotaomicron GH92 alpha-mannosidase 2199 assessed as recovery of enzyme activity at 1 mM in presence of 7 mM Mg(2+) ions and in presence of 5 mM EGTA in 100 mM pH 7 MOPS buffer relative to enzyme activity in presence of calcium.
The target is the same in test [10]. The test is described as follows: Activity of Bacteroides thetaiotaomicron GH92 alpha-mannosidase 2199 assessed as recovery of enzyme activity at 1 mM in presence of 7 mM Zn(2+) ions and in presence of 5 mM EGTA in 100 mM pH 7 MOPS buffer relative to enzyme activity in presence of calcium.
Test [11] shares this target. Briefly: Activity of Bacteroides thetaiotaomicron GH92 alpha-mannosidase 2199 assessed as recovery of enzyme activity at 1 mM in presence of 7 mM Sr(2+) ions and in presence of 5 mM EDTA in 100 mM pH 7 MOPS buffer relative to enzyme activity in presence of calcium.
For test [12], the target named is T2, Alpha-1,2-mannosidase (BT_3990) (Bacteroides thetaiotaomicron). The test is described as follows: Activity of Bacteroides thetaiotaomicron GH92 alpha-mannosidase 3990 assessed as recovery of enzyme activity at 1 mM relative to enzyme activity in presence of calcium.

Calls of active or inactive are those of the source. The rule behind the calls is not given here.

With `OC[C@H]1O[C@H](O[C@@H]2[C@H](O)[C@@H](O)O[C@H](CO)[C@H]2O)[C@@H](O)[C@@H](O)[C@@H]1O`, the result in [1] was inactive.

Turning to `OC[C@H]1O[C@H](O[C@H]2[C@H](O)[C@H](O)[C@@H](O)O[C@@H]2CO)[C@@H](O)[C@@H](O)[C@@H]1O`, the Activity in test [1] was determined as 0.12%.

Take `OC[C@H]1O[C@H](O[C@H]2[C@@H](O)[C@H](O)[C@@H](CO)O[C@@H]2O)[C@@H](O)[C@@H](O)[C@@H]1O`: the Activity in [1] came out at 100%.

Turning to `O=[N+]([O-])c1ccc(O[C@H]2O[C@H](CO)[C@@H](O)[C@H](O)[C@@H]2O)cc1`, the Activity came out at 0% in test [2]; 0% in test [3]; 12% in [4]; 0% in test [5]; 0% in test [6]; 0% in [7]. In addition, the Activity in test [8] is 0%; in test [9], 0%; in test [10], 0%; in test [11], 31%.

Turning to `OC[C@H]1O[C@H](OC[C@H]2O[C@H](O)[C@@H](O)[C@@H](O)[C@@H]2O)[C@@H](O)[C@@H](O)[C@@H]1O`, the outcome in test [1] was inactive. The Activity in test [12] worked out at 65%.
